# Test results: US20240317718A1, “SUBSTITUTED HETEROCYCLIC COMPOUNDS” (BRISTOL-MYERS SQUIBB COMPANY, priority 2021, published 2024)
# Assays:
# [1] = tested on: IFNα-induced pSTAT5 (Tyk2-mediated signal transduction); assay: IFNα-induced STAT phosphorylation in human whole blood; format: cell-based; details: 1 h incubation with compound, 1000 U/mL IFNα A/D for 15 min, CD3 positive population, read-out: Human Whole blood IFNa pSTAT5 IC50
# Description: IFNα-Induced STAT Phosphorylation in Human Whole Blood
# After an hour long incubation with compound, human whole blood (drawn with ACD-A as anticoagulant) was stimulated with 1000 U/mL recombinant human IFNα A/D (R&D Systems 11200-2) for 15 min. The stimulation was stopped by adding Fix/Lyse buffer (BD 558049). Cells were stained with a CD3 FITC antibody (BD 555916), washed, and permeabilized on ice using Perm III buffer (BD 558050). Cells were then stained with an Alexa-Fluor 647 pSTAT5 (pY694) antibody (BD 612599) for 60 min prior to analysis on the iQue Plus. The amount of pSTAT5 expression was quantitated by median fluorescence intensity after gating on the CD3 positive population.
# in vitro = details: human, Caco-2, pH 7.4
Compound,IC50 [1] [nM],"Papp A→B at 2 h, 3 μM (in vitro) [×10⁻⁶ cm/s]","efflux ratio at 2 h, 3 μM (in vitro)"
"[2H]C([2H])([2H])NC(=O)c1nnc(NC(=O)C2C[C@H]2C)cc1Nc1cccc(-c2nnn(C)n2)c1OC (mixture of isomers) [Example 25, 4-{[2-methoxy-3-(2-methyl-2H-1,2,3,4-tetrazol-5-yl)phenyl]amino}-N-(^2H3)methyl-6-[(1R,2R)-2-methylcyclopropaneamido]pyridazine-3-carboxamide]",248,23.3,1.1
"[2H]C([2H])([2H])NC(=O)c1nnc(NC(=O)C2CC2)cc1Nc1cccc(-c2noc(CF)n2)c1OC [Example 1, 6-(cyclopropanecarboxamido)-4-((3-(5-(fluoromethyl)-1,2,4-oxadiazol-3-yl)-2-methoxyphenyl)amino)-N-(methyl-d3)pyridazine-3-carboxamide]",34,65,0.5
"[2H]C([2H])([2H])NC(=O)c1nnc(NC(=O)C2CC2)cc1Nc1cccc(-c2noc(COC(C)C)n2)c1OC [Example 2, 6-(cyclopropanecarboxamido)-4-((3-(5-(isopropoxymethyl)-1,2,4-oxadiazol-3-yl)-2-methoxyphenyl)amino)-N-(methyl-d3)pyridazine-3-carboxamide]",13,66.1,0.3
"CCOCc1nc(-c2cccc(Nc3cc(NC(=O)C4CC4)nnc3C(=O)NC)c2OC)no1 [Example 3, 6-cyclopropaneamido-4-({3-[5-(ethoxymethyl)-1,2,4-oxadiazol-3-yl]-2-methoxyphenyl}amino)-N-(^2H3)methylpyridazine-3-carboxamide]",31,,
"CNC(=O)c1nnc(NC(=O)C2CC2)cc1Nc1cccc(-c2ncns2)c1OC [Example 9, 6-cyclopropaneamido-4-{[2-methoxy-3-(1,2,4-thiadiazol-5-yl)phenyl]amino}-N-(^2H3)methylpyridazine-3-carboxamide]",161,,
"CNC(=O)c1nnc(NC(=O)C2CC2)cc1Nc1cccc(-c2cnc(F)cn2)c1OC [Example 10, 6-cyclopropaneamido-4-{[3-(5-fluoropyrazin-2-yl)-2-methoxyphenyl]amino}-N-(^2H3)methylpyridazine-3-carboxamide]",219,,
"CNC(=O)c1nnc(NC(=O)C2CC2)cc1Nc1cccc(-c2cnc(C3CC3)cn2)c1OC [Example 11, 6-cyclopropaneamido-4-{[3-(5-cyclopropylpyrazin-2-yl)-2-methoxyphenyl]amino}-N-(^2H3)methylpyridazine-3-carboxamide]",165,,
"CNC(=O)c1nnc(NC(=O)C2CC2)cc1Nc1cccc(-c2nc(C)ns2)c1OC [Example 13, 6-cyclopropaneamido-4-{[2-methoxy-3-(3-methyl-1,2,4-thiadiazol-5-yl)phenyl]amino}-N-(^2H3)methylpyridazine-3-carboxamide]",51,,
"[2H]C([2H])([2H])NC(=O)c1nnc(NC(=O)C2CC2)cc1Nc1cc(C)cc(-c2cnc(C3(O)CCC3)cn2)c1OC [Example 14, 6-(cyclopropanecarboxamido)-4-((3-(5-(1-hydroxycyclobutyl)pyrazin-2-yl)-2-methoxy-5-methylphenyl)amino)-N-(methyl-d3)pyridazine-3-carboxamide]",148,37.8,0.9
"[2H]C([2H])([2H])NC(=O)c1nnc(NC(=O)C2CC2)cc1Nc1cc(F)cc(-c2cnc(C3(O)CCC3)cn2)c1OC [Example 15, 6-cyclopropaneamido-4-({5-fluoro-3-[5-(1-hydroxycyclobutyl)pyrazin-2-yl]-2-methoxyphenyl}amino)-N-(^2H3)methylpyridazine-3-carboxamide]",99,30.9,1
"[2H]C([2H])([2H])NC(=O)c1nnc(NC(=O)C2CC2)cc1Nc1cc(F)cc(-c2cnc(C3CC3)cn2)c1OC [Example 16, 6-(cyclopropanecarboxamido)-4-((3-(5-cyclopropylpyrazin-2-yl)-5-fluoro-2-methoxyphenyl)amino)-N-(methyl-d3)pyridazine-3-carboxamide]",197,19.4,0.5

# Further molecules by falling IC50 [1], results first:
IC50 [1] [nM],"Papp A→B at 2 h, 3 μM (in vitro) [×10⁻⁶ cm/s]","efflux ratio at 2 h, 3 μM (in vitro)",Compound
431,31.3,0.6,"[2H]C([2H])([2H])NC(=O)c1nnc(NC(=O)C2CC2)cc1Nc1cccc(-c2ccc(C(F)F)cn2)c1OC [Example 7, 6-(cyclopropanecarboxamido)-4-((3-(5-(difluoromethyl)pyridin-2-yl)-2-methoxyphenyl)amino)-N-(methyl-d3)pyridazine-3-carboxamide]"
248,,,"CNC(=O)c1nnc(NC(=O)C2CC2)cc1Nc1cccc(-c2cc(C)ncn2)c1OC [Example 8, 6-cyclopropaneamido-4-{[2-methoxy-3-(6-methylpyrimidin-4-yl)phenyl]amino}-N-(^2H3)methylpyridazine-3-carboxamide]"
152,25.9,0.7,"[2H]C([2H])([2H])NC(=O)c1nnc(NC(=O)C2CC2)cc1Nc1cccc(-c2nc(C)oc2C)c1OC [Example 18, 6-cyclopropaneamido-4-{[3-(2,5-dimethyl-1,3-oxazol-4-yl)-2-methoxyphenyl]amino}-N-(^2H3)methylpyridazine-3-carboxamide]"
91,64,0.7,"[2H]C([2H])([2H])NC(=O)c1nnc(NC(=O)C2CC2)cc1Nc1cccc(-c2noc(CCF)n2)c1OC [Example 5, 6-(cyclopropanecarboxamido)-4-((3-(5-(2-fluoroethyl)-1,2,4-oxadiazol-3-yl)-2-methoxyphenyl)amino)-N-(methyl-d3)pyridazine-3-carboxamide]"
63,47.4,0.4,"[2H]C([2H])([2H])NC(=O)c1nnc(NC(=O)C2CC2)cc1Nc1cccc(-c2coc(C)n2)c1OC [Example 17, 6-(cyclopropanecarboxamido)-4-((2-methoxy-3-(2-methyloxazol-4-yl)phenyl)amino)-N-(methyl-d3)pyridazine-3-carboxamide]"
44,,,"CNC(=O)c1nnc(NC(=O)C2CC2)cc1Nc1cccc(-c2cnc([N+](=O)[O-])cn2)c1OC [Example 12, 6-cyclopropaneamido-4-{[2-methoxy-3-(5-nitropyrazin-2-yl)phenyl]amino}-N-(^2H3)methylpyridazine-3-carboxamide]"
42,78.5,0.5,"[2H]C([2H])([2H])NC(=O)c1nnc(NC(=O)C2CC2)cc1Nc1cccc(-c2cocn2)c1OC [Example 6, 6-(cyclopropanecarboxamido)-4-((2-methoxy-3-(oxazol-4-yl)phenyl)amino)-N-(methyl-d3)pyridazine-3-carboxamide]"
9,,,"CNC(=O)c1nnc(NC(=O)C2CC2)cc1Nc1cccc(-c2noc(CCOC)n2)c1OC [Example 4, 6-cyclopropaneamido-4-({2-methoxy-3-[5-(2-methoxyethyl)-1,2,4-oxadiazol-3-yl]phenyl}amino)-N-(^2H3)methylpyridazine-3-carboxamide]"
